In patent US12624034B2, “Non-covalent modifiers of AKT1 and uses thereof” (Terremoto Biosciences, Inc., priority 2023, dated 2026):
Like-named read-outs stand apart in the source and are kept apart here.

Experiments:
AKT2 = molecular target: T1, AKT2 (Homo sapiens, UniProt P31751); test: Live cell AKT2 target engagement by NanoBRET competitive probe displacement in HEK293 cells; format: binding; conditions: 2 h at 37° C., read-out: AKT2 IC50
T1 construct: expressed in transfected cells; host or cells: HEK293

AKT1 WT = molecular target: T2, AKT1 WT (Homo sapiens, UniProt P31749); test: Live cell AKT1 WT target engagement by NanoBRET competitive probe displacement in HEK293 cells; format: binding; conditions: 2 h at 37° C., read-out: AKT1 WT IC50
T2 construct: expressed in transfected cells; host or cells: HEK293

[1] = NanoBRET live cell target engagement, HEK293 cells
[2] = NanoBRET competitive probe displacement, live HEK293 cells

T2 sequence (P31749 whole entry): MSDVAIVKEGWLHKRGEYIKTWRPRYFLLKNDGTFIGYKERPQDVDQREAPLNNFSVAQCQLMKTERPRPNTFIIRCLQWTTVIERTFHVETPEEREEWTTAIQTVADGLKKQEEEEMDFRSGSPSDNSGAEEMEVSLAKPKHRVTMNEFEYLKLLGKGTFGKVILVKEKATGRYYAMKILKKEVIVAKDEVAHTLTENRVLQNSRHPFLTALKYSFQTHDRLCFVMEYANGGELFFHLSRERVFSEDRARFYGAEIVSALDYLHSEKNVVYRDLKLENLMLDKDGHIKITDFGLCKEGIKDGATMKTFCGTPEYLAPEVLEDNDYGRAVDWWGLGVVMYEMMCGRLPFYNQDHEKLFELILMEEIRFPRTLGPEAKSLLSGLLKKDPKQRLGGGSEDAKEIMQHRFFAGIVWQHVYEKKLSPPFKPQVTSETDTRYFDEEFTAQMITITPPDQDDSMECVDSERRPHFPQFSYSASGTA
T1 sequence (P31751 whole entry): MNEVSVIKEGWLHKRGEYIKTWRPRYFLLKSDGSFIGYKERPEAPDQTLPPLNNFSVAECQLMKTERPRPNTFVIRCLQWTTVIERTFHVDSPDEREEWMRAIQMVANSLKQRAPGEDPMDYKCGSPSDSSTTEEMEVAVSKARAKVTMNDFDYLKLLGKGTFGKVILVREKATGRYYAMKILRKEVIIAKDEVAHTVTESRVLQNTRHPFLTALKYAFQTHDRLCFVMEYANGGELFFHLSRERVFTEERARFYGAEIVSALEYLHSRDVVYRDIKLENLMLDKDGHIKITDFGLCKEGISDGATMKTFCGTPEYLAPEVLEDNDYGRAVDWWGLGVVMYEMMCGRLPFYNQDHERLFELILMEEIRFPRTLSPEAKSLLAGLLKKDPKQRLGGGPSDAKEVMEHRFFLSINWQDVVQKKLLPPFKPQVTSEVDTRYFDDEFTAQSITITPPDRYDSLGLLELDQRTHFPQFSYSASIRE

N#Cc1cc(-n2cccn2)nc2c1nc(-c1cccnc1N)n2-c1ccc2c(c1)CC[C@@H]2NC(=O)c1ccc(C(F)F)nc1 [Compound 123, (S)—N-(5-(2-(2-aminopyridin-3-yl)-7-cyano-5-(1H-pyrazol-1-yl)-3H-imidazo[4,5-b]pyridin-3-yl)-2,3-dihydro-1H-inden-1-yl)-6-(difluoromethyl)nicotinamide]
IC50 (AKT2; [1]): 114 nM | IC50 (AKT1 WT; [1]): 9.84 nM

Nc1ncccc1-c1nc2ccc(-n3cccn3)nc2n1-c1ccc2c(c1)CC[C@@H]2NC1CCS(=O)(=O)CC1 [Compound 89]
IC50 (AKT2; [1]): > 10000 nM | IC50 (AKT1 WT; [1]): 459 nM

Cc1ccc2nc(-c3cccnc3N)n(-c3ccc4c(c3)CC[C@@H]4NC(=O)c3ccc(C(F)F)nc3)c2n1 [Compound 146]
IC50 (AKT2; [1]): > 10000 nM | IC50 (AKT1 WT; [1]): 508 nM

Nc1ncccc1-c1nc2ccc(-n3cccn3)nc2n1-c1ccc2c(c1)CC[C@@H]2n1cc(Cc2ccccc2)nn1 [Compound 156]
IC50 (AKT2; [1]): 722 nM | IC50 (AKT1 WT; [1]): 39.3 nM

Cc1ccc(C(=O)N[C@H]2CC(F)(F)c3cc(-n4c(-c5cccnc5N)nc5ccc(-n6cccn6)nc54)ccc32)cn1 [Compound 299]
IC50 (AKT2; [1]): > 10000 nM | IC50 (AKT1 WT; [1]): > 1000 nM

Nc1ncccc1-c1nc2ccc(-n3cccn3)nc2n1-c1ccc2c(c1)CC[C@@H]2NC(=O)c1ccc(O)nc1 [Compound 297]
IC50 (AKT2; [1]): 4220 nM | IC50 (AKT1 WT; [1]): 163 nM

COCC#Cc1ccc2nc(-c3cccnc3N)n(-c3ccc4c(c3)CC[C@@H]4NC(=O)c3ccc(C(F)F)nc3)c2n1 [Compound 409]
IC50 (AKT2; [2]): 1290 nM | IC50 (AKT1 WT; [2]): 36 nM

Cc1ncccc1C(=O)N[C@H]1CCc2cc(-n3c(-c4cccnc4N)nc4c(F)cc(-n5cccn5)nc43)ccc21 [Compound 212]
IC50 (AKT2; [1]): 158 nM | IC50 (AKT1 WT; [1]): 57.8 nM

Cc1cn2cc(C(=O)N[C@H]3CCc4cc(-n5c(-c6cccnc6N)nc6ccc(-n7cccn7)nc65)ccc43)ccc2n1 [Compound 72]
IC50 (AKT2; [1]): 28.1 nM | IC50 (AKT1 WT; [1]): 7.95 nM

Nc1ncccc1-c1nc2ccc(-n3nccn3)nc2n1-c1ccc2c(c1)CC[C@@H]2NC(=O)c1ccns1 [Compound 413]
IC50 (AKT2; [2]): 1470 nM | IC50 (AKT1 WT; [2]): 21.7 nM

Nc1ncccc1-c1nc2ccc(-n3cccn3)nc2n1-c1ccc2c(c1)CC[C@@H]2NC(=O)c1cccnc1CO [Compound 152, (S)—N-(5-(2-(2-aminopyridin-3-yl)-5-(1H-pyrazol-1-yl)-3H-imidazo[4,5-b]pyridin-3-yl)-2,3-dihydro-1H-inden-1-yl)-2-(hydroxymethyl)nicotinamide]
IC50 (AKT2; [1]): 984 nM | IC50 (AKT1 WT; [1]): 61.7 nM

Nc1ncccc1-c1nc2ccc(-n3cccn3)nc2n1-c1ccc2c(c1)CC[C@@H]2NC(=O)c1ccc(OC(F)(F)F)nc1 [Compound 68]
IC50 (AKT2; [1]): 15.2 nM | IC50 (AKT1 WT; [1]): 5.29 nM

COc1cc2c(cn1)CCC2N[C@H]1CCc2cc(-n3c(-c4cccnc4N)nc4ccc(-n5cccn5)nc43)ccc21 (some centres unmarked) [Compound 510]
IC50 (AKT2; [2]): 262 nM | IC50 (AKT1 WT; [2]): 14.6 nM

Nc1ncccc1-c1nc2ccc(-n3cccn3)nc2n1-c1ccc2c(c1)CC[C@@H]2NC(=O)c1ccnc(OC2CC2)c1 [Compound 201]
IC50 (AKT2; [1]): 66.5 nM | IC50 (AKT1 WT; [1]): 9.27 nM

Cc1ncccc1C(=O)N[C@H]1CCc2cc(-n3c(-c4cccnc4N)nc4c(C#N)cc(-n5cccn5)nc43)ccc21 [Compound 125]
IC50 (AKT2; [1]): 201 nM | IC50 (AKT1 WT; [1]): 13.3 nM

Nc1ncccc1-c1nc2ccc(-n3cccn3)nc2n1-c1ccc2c(c1)CC[C@@H]2NC(=O)c1cc(F)cc(F)c1 [Compound 331]
IC50 (AKT2; [1]): 41.3 nM | IC50 (AKT1 WT; [1]): 19.1 nM

Nc1ncccc1-c1nc2ccc(-n3cccn3)nc2n1-c1ccc2c(c1)CC[C@@H]2NC(=O)c1ccnc(F)c1 [Compound 295]
IC50 (AKT2; [1]): 81.3 nM | IC50 (AKT1 WT; [1]): 5.59 nM

C#Cc1cc(-n2nccn2)nc2c1nc(-c1cccnc1N)n2-c1ccc2c(c1)CC[C@@H]2NC(=O)c1ccc(C(F)F)nc1 [Compound 583]
IC50 (AKT2; [2]): 3780 nM | IC50 (AKT1 WT; [2]): 805 nM

Cc1ncc(C(=O)N[C@H]2CCc3cc(-n4c(-c5cccnc5N)nc5ccc(-n6cccn6)nc54)ccc32)s1 [Compound 120]
IC50 (AKT2; [1]): 103 nM | IC50 (AKT1 WT; [1]): 5.61 nM

Nc1ncccc1-c1nc2ccc(-n3cccn3)nc2n1-c1ccc2c(c1)CC[C@@H]2NC(=O)c1ccc2c(c1)CC(=O)N2 [Compound 194]
IC50 (AKT2; [1]): 39.5 nM | IC50 (AKT1 WT; [1]): 9.37 nM

Cc1ncc(C(=O)N[C@H]2CCc3cc(-n4c(-c5cccnc5N)nc5ccc(-n6nccn6)nc54)ccc32)c(C)n1 [Compound 92]
IC50 (AKT2; [1]): 1140 nM | IC50 (AKT1 WT; [1]): 42.8 nM

Nc1ncccc1-c1nc2ccc(-n3cccn3)nc2n1-c1ccc2c(c1)CC[C@@H]2NC(=O)c1ccc(N2CCOCC2)nc1 [Compound 95]
IC50 (AKT2; [1]): 9.41 nM | IC50 (AKT1 WT; [1]): 6.98 nM

CC#Cc1ncccc1C(=O)N[C@H]1CCc2cc(-n3c(-c4cccnc4N)nc4ccc(-n5cccn5)nc43)ccc21 [Compound 211]
IC50 (AKT2; [1]): 824 nM | IC50 (AKT1 WT; [1]): 32.1 nM

Nc1ncccc1-c1nc2ccc(-n3nccn3)nc2n1-c1ccc2c(c1)CC[C@@H]2n1cc(C2CC2)nn1 [Compound 352]
IC50 (AKT2; [1]): 4290 nM | IC50 (AKT1 WT; [1]): 141 nM

CN1CCN(c2ccn(-c3ccc4nc(-c5cccnc5N)n(-c5ccc6c(c5)CC[C@@H]6NC5CCN(c6ccn(C)n6)CC5)c4n3)n2)CC1 [Compound 598]
IC50 (AKT2; [2]): 40.5 nM | IC50 (AKT1 WT; [2]): 3.8 nM

Cc1ccc(C(=O)N[C@H]2CCc3cc(-n4c(-c5cccnc5N)nc5ccc(-c6nc(C(F)F)cs6)nc54)ccc32)cn1 [Compound 403]
IC50 (AKT2; [2]): 20.1 nM | IC50 (AKT1 WT; [2]): 6.13 nM

Nc1ncccc1-c1nc2ccc(-n3cccn3)nc2n1-c1ccc2c(c1)CC[C@@H]2NC(=O)c1ccc(F)nc1 [Compound 264]
IC50 (AKT2; [1]): 163 nM | IC50 (AKT1 WT; [1]): 9.54 nM

CNC(=O)c1ccc(C(=O)N[C@H]2CCc3cc(-n4c(-c5cccnc5N)nc5ccc(-n6cccn6)nc54)ccc32)cc1 [Compound 256]
IC50 (AKT2; [1]): 73.8 nM | IC50 (AKT1 WT; [1]): 5.19 nM

Nc1ncccc1-c1nc2ccc(-n3ccc(OC(F)F)n3)nc2n1-c1ccc2c(c1)CC[C@@H]2NC(=O)c1ccc(C2CC2)nc1 [Compound 537]
IC50 (AKT2; [2]): 15.3 nM | IC50 (AKT1 WT; [2]): 2.77 nM

CC(C)(O)c1ccn(-c2ccc3nc(-c4cccnc4N)n(-c4ccc5c(c4)CC[C@@H]5NC4CCN(C(=O)C5CC5)CC4)c3n2)n1 [Compound 569]
IC50 (AKT2; [2]): 808 nM | IC50 (AKT1 WT; [2]): 77.4 nM

Cc1ncccc1C(=O)N[C@@H]1c2ccc(-n3c(-c4cccnc4N)nc4ccc(-n5cccn5)nc43)cc2CC1F (some centres unmarked) [Compound 147]
IC50 (AKT2; [1]): 131 nM | IC50 (AKT1 WT; [1]): 19.6 nM

Nc1ncccc1-c1nc2ccc(-n3nccn3)nc2n1-c1ccc2c(c1)CC[C@@H]2NC(=O)c1cnc(C(F)F)o1 [Compound 538]
IC50 (AKT2; [2]): 2910 nM | IC50 (AKT1 WT; [2]): 25.1 nM

CC(C)NC(=O)N[C@H]1CCc2cc(-n3c(-c4cccnc4N)nc4ccc(-n5cccn5)nc43)ccc21 [Compound 134, (S)-1-(5-(2-(2-aminopyridin-3-yl)-5-(1H-pyrazol-1-yl)-3H-imidazo[4,5-b]pyridin-3-yl)-2,3-dihydro-1H-inden-1-yl)-3-isopropylurea]
IC50 (AKT2; [1]): > 10000 nM | IC50 (AKT1 WT; [1]): > 1000 nM

Cc1cnsc1C(=O)N[C@H]1CCc2cc(-n3c(-c4cccnc4N)nc4ccc(-n5cccn5)nc43)ccc21 [Compound 451]
IC50 (AKT2; [2]): 198 nM | IC50 (AKT1 WT; [2]): 8.14 nM

Nc1ncccc1-c1nc2ccc(-n3cccn3)nc2n1-c1ccc2c(c1)CC[C@@H]2NC(=O)c1cccnc1C(F)F [Compound 79]
IC50 (AKT2; [1]): 540 nM | IC50 (AKT1 WT; [1]): 19.5 nM

COc1cncc(C(=O)N[C@H]2CCc3cc(-n4c(-c5cccnc5N)nc5ccc(-n6cccn6)nc54)ccc32)n1 [Compound 348]
IC50 (AKT2; [1]): 2600 nM | IC50 (AKT1 WT; [1]): 58.2 nM

Cc1ncsc1C(=O)N[C@H]1CCc2cc(-n3c(-c4cccnc4N)nc4ccc(-n5cccn5)nc43)ccc21 [Compound 99]
IC50 (AKT2; [1]): 260 nM | IC50 (AKT1 WT; [1]): 28.4 nM

Cc1cccnc1C(=O)N[C@H]1CCc2cc(-n3c(-c4cccnc4N)nc4ccc(-n5cccn5)nc43)ccc21 [Compound 184]
IC50 (AKT2; [1]): 4740 nM | IC50 (AKT1 WT; [1]): 114 nM

Nc1ncccc1-c1nc2ccc(-n3cccn3)nc2n1-c1ccc2c(c1)CC[C@@H]2NC(=O)c1cc2ccccn2n1 [Compound 175]
IC50 (AKT2; [1]): 79.7 nM | IC50 (AKT1 WT; [1]): 13 nM

Nc1ncccc1-c1nc2ccc(-n3ccc(C4COC4)n3)nc2n1-c1ccc2c(c1)CC[C@@H]2NC1CCN(C(=O)C2CC2)CC1 [Compound 597]
IC50 (AKT2; [2]): 3780 nM | IC50 (AKT1 WT; [2]): 66.1 nM

CN1CCN(c2ccn(-c3ccc4nc(-c5cccnc5N)n(-c5ccc6c(c5)CC[C@@H]6NC5CCN(C(=O)C6CC6)CC5)c4n3)n2)CC1 [Compound 563]
IC50 (AKT2; [2]): 37.8 nM | IC50 (AKT1 WT; [2]): 1.83 nM

Nc1ncccc1-c1nc2ccc(C#CC3CC3)nc2n1-c1ccc2c(c1)CC[C@@H]2NC(=O)c1ccc(C(F)F)nc1 [Compound 406]
IC50 (AKT2; [2]): 903 nM | IC50 (AKT1 WT; [2]): 20.4 nM

Nc1ncccc1-c1nc2ccc(-n3cccn3)nc2n1-c1ccc2c(c1)CC[C@@H]2NC(=O)c1ccc(O)c(Cl)c1 [Compound 258]
IC50 (AKT2; [1]): 60.3 nM | IC50 (AKT1 WT; [1]): 3.06 nM

COc1ccn(-c2ccc3nc(-c4cccnc4N)n(-c4ccc5c(c4)CC[C@@H]5NC4CCN(C(=O)C5CC5)CC4F)c3n2)n1 (some centres unmarked) [Compound 513]
IC50 (AKT2; [2]): 240 nM | IC50 (AKT1 WT; [2]): 13.9 nM

Nc1ncccc1-c1nc2ccc(-n3cccn3)nc2n1-c1ccc2c(c1)CC[C@@H]2NC(=O)c1cccc(CO)c1 [Compound 240]
IC50 (AKT2; [1]): 59.3 nM | IC50 (AKT1 WT; [1]): 5.82 nM

COc1cc(C(=O)N[C@H]2CCc3cc(-n4c(-c5cccnc5N)nc5ccc(-n6cccn6)nc54)ccc32)cc(F)n1 [Compound 344]
IC50 (AKT2; [1]): 19.6 nM | IC50 (AKT1 WT; [1]): 7.97 nM

Nc1ncccc1-c1nc2ccc(-n3cccn3)nc2n1-c1ccc2c(c1)CC[C@@H]2NC1CCN(C(=O)C2CC2)CC1F (some centres unmarked) [Compound 443]
IC50 (AKT2; [2]): 940 nM | IC50 (AKT1 WT; [2]): 23.2 nM

Nc1ncccc1-c1nc2ccc(-n3ccc(OC(F)F)n3)nc2n1-c1ccc2c(c1)CC(F)[C@@H]2NC1CCN(C(=O)C2CC2)CC1 (some centres unmarked) [Compound 525]
IC50 (AKT2; [2]): 1330 nM | IC50 (AKT1 WT; [2]): 33.5 nM

Nc1ncccc1-c1nc2ccc(-c3ccn(C(F)F)n3)nc2n1-c1ccc2c(c1)CC[C@@H]2NC(=O)c1ccc(C(F)(F)F)nc1 [Compound 421]
IC50 (AKT2; [2]): 37.9 nM | IC50 (AKT1 WT; [2]): 3.52 nM
